Data published in a melting point compilation (Tetko et al.; mined from patent text by program, amines drawn as free bases though some values may be those of a salt).

SMILES	melting point [°C]
O=C1c2c(Cl)cccc2-n2cnc(CO)c2C2CCCN12 (stereo not drawn)	303 to 305
Clc1ccc(-c2ccc(N3CCCN(c4ccc(-c5ccc(Cl)cc5)cn4)CC3)nc2)cc1	245 to 247
CCOC(=O)c1snnc1C	59 to 61
Cc1ccccc1COC(C)(CO)CO	90 to 91
CS(=O)(=O)Nc1cc2occ(-n3cccc3)c(=O)c2cc1Oc1ccccc1	238 to 240
Fc1cnc(Nc2nc3c(s2)CCN(CCCN2CCC(F)(F)CC2)c2n[nH]cc2-3)nc1	238 to 240
COc1ccc2c(c1)c1c(n2C)CCC(Cc2nc[nH]c2C)C1=O (stereo not drawn)	227 to 229
CC(=NC(=Nc1ccccc1)N1CCOCC1)NC(C)C	142 to 145
CCCc1nc2c(c(C)c(C)n3nnnc23)n1CC(C)(C)NC(C)=O	237 to 240
CC1(C)C=Cc2cc(C#N)c([N+](=O)[O-])cc2O1	154 to 155
O=c1[nH]c2ccccc2n1CCN1CCN(Cc2ccccc2)CC1	136
O=C(NC1N=C(c2ccccc2F)c2ccccc2NC1=O)c1cc2ccccc2[nH]1 (racemic)	290 to 291
CC(C)COC(=O)Nc1cc(F)cc(F)c1	71 to 74
O=C1NC(C(Cl)(Cl)Cl)Oc2ccccc21 (stereo not drawn)	175 to 177
OCCN1CCN(C2=Nc3cc(Br)ccc3Oc3cscc32)CC1	150 to 152
C#Cc1ccc(C#N)cc1OC	105 to 106
O=C1C(Cl)=C(Nc2ccc(S(=O)(=O)Nc3ccccn3)cc2)C(=O)c2ccccc21	273 to 275
N#CC(C=N)CC(=O)c1ccc2ccccc2c1 (stereo not drawn)	154 to 157
COc1ccc(S(=O)(=O)N(Cc2cccnc2)C(C(N)=O)C(C)C)cc1 (stereo not drawn)	45 to 53
C=C(CC(Cl)(Cl)Cl)c1cc(Cl)nc(Cl)c1	82 to 83
Cc1ccc(C(=O)c2ccc(Cc3ccc(NS(C)(=O)=O)cc3C#N)n2C)cc1	171 to 172
CCOC(=O)N1CCN(C(=S)Cl)CC1	107 to 111
CCn1c(=O)c2c(nc(/C=C/c3ccc(OCCCCBr)cc3)n2C)n(CC)c1=O	175 to 176
Cc1cc(Cn2cc(C(F)(F)C(F)(F)F)c(C(F)(F)C(F)(F)F)n2)ccc1NC(=O)c1cccc(Br)c1C(=O)N[C@@H](C)CS(C)(=O)=O	134 to 136
COc1ccc(Br)c(CN(CC(F)(F)F)C(=O)OC(C)(C)C)c1	86 to 89

SMILES	melting point [°C]
Cn1nc(-c2cc(O)c(Cl)cc2F)c(Cl)c1C(F)(F)F	123 to 126
COC(=O)c1cc(SC#N)c(N)cc1OC	184 to 185
CCOC(=O)c1cnc2cc(I)ccc2n1	160 to 162
CC(=O)OC1CCC2(C)C3=C(CCC2C1)C1CCC(C(C)=O)C1(C)CC3=O (stereo not drawn)	169 to 172
COc1ccc(-c2oncc2CO)cc1OC	83 to 84
Cc1ccc(-c2cc(C(=O)C=Cc3ccc(C(=O)O)cc3)cc(C(C)(C)C)c2OCc2ccccc2)cc1	208
CC(=O)NCC1CC1c1c(C2CC2)ccc2nn(C)cc12 (stereo not drawn)	102 to 103
Cc1cc(-c2nc3ccc(CN4CCOCC4)cc3c(=O)[nH]2)ccn1	267 to 268
CCOC(=O)C1C=NC(C)=C(c2ccccc2)C1=O (stereo not drawn)	178 to 180
Cc1oc(-c2ccccc2)nc1COc1ccc(CCCCCO)cc1	78 to 79
CCOc1cnn(-c2cc(-c3ccnc(Nc4cccc(Cl)c4)n3)ccn2)c(=O)c1Cl	196 to 198
CC(C)c1csc(/C=C/c2cc([N+](=O)[O-])ccc2Cl)n1	86 to 89
CCCCCCC(=O)c1ccc2c([N+](=O)[O-])c(O)c(O)cc2c1	97 to 98
Cc1ncncc1NC(=O)Nc1ccc(-n2nc(C(F)(F)F)cc2C2CC2)c(F)c1	198 to 202
CN(CCc1ccc(NS(C)(=O)=O)cc1)Cc1ccc2cc(NS(C)(=O)=O)ccc2n1	165 to 166
COC(=O)CCc1cc(C(C)(C)C)c2oc(-c3ccc(-c4nc5cc(CCC(=O)OC)cc(C(C)(C)C)c5o4)s3)nc2c1	144 to 145
Cc1c(C(F)(F)F)cnn(-c2cc(OCC3CCCCC3)c(Cl)cc2F)c1=O	90.2
O=C(Nc1c[nH]nc1C(=O)NCCCc1ccccc1)c1ccccn1	179 to 180
Cc1nnc(-c2ccc3occ(-c4ccc(C(=O)O)cc4Cl)c3c2)o1	267 to 268
O=S(CCl)c1ccc(-n2cnnn2)cc1 (stereo not drawn)	147 to 149
O=C(Nc1ccc(-n2nc(C(F)(F)F)cc2C(F)(F)F)cc1)c1ccc(Cl)nc1Cl	115 to 117
Cc1ccccc1NC(=O)Nc1ccc(C(=O)N2Cc3ccccc3Cc3ccccc32)cc1	188 to 190
Cc1nc2cc(C(F)(F)F)c(Cl)c(N)c2n1N(C)C	173 to 174
CC(=O)SCC(C)C(=O)N(CC(=O)O)C1CC1 (stereo not drawn)	86 to 88
N#Cc1c(N2CCN(C(=O)c3cccs3)CC2)c2cccnc2n(C2CCCCC2)c1=O	192

SMILES	melting point [°C]
CC(=O)Nc1ccc(Nc2nccc(-c3sc(C)nc3C)n2)cc1	219 to 220
C=CCOc1cc2c(cc1CC=C)CCC(=O)N2CC=C(C)C	20 to 28
O=c1[nH]c(=O)n(Cc2ccc(Cl)cc2)c2nc[nH]c12	304 to 310
CC(C)(C)[C@H]1OC(=O)[C@H](c2cccc(Cl)c2)O1	40 to 42
N#Cc1cc(-c2ccoc2)c2ccc(COc3cc(F)cc(-c4ccoc4)c3)cc2n1	156 to 159
COC(=O)c1ccc(COc2cc(F)cc(C3(OC)CCOCC3)c2)cc1	88 to 89
O=C1C=C(NC(=O)C(=O)c2cn(Cc3c(F)cccc3Cl)c3ccccc23)CO1	> 270
CCCOc1ccc(S(C)(=O)=O)cc1C(=O)Nc1c(CC)nn(CC2CCCN2C)c1C(N)=O (stereo not drawn)	217 to 221
CC(C)(C)OC(=O)N[C@@H](COC(=O)C(C)(C)C)Cc1ccccc1	59 to 60
CCCOc1ccc(-n2c(C(F)(F)F)nn(C)c2=S)cc1	68 to 70
Cn1ccc2c(c(=NO)c1=O)C=CCC2	225 to 226
CCOC(=O)C(C)(C)CCCCCOc1ccc(NC(=O)CCCCCn2ccnc2)cc1	59
Cc1cncn1-c1cc(C(=O)O)cc(C(F)(F)F)c1	243 to 245
C#CCN1C(=O)COc2cc(F)ccc21	98 to 100
COC(=O)c1ccc(OCCCCCCCc2cc(C)no2)cc1	60
COC(=O)C[C@@H]1C[C@@H](COc2ccc(-c3ccc(C(=N)NC(=O)OCc4ccccc4)cc3)cc2)NC1=O	160 to 164
O=C1CCC(N2Cc3c(OCc4ccc(CN5CCn6nc(C(F)(F)F)nc6C5)cc4)cccc3C2=O)C(=O)N1 (stereo not drawn)	139 to 142
N#CCNC(COCc1cc(C(F)(F)F)cc(C(F)(F)F)c1)C(c1ccccc1)c1ccccc1 (stereo not drawn)	78 to 80
O=C1OC(=O)[C@@H](Cl)[C@@H]1Cl (relative stereo)	90 to 92
CCC(=O)NCCC1c2cc(OC)ccc2-c2ccc(OC)cc21	139 to 140
CCn1cc(C(=O)Nc2ccc(C(C)C)cc2)cn1	141
Oc1ccc(C2COc3cc(O)cc(O)c3C2)cc1 (stereo not drawn)	206 to 208
Cc1nc(-c2ccc(Cl)cc2)c(CCC(=O)O)o1	211 to 212
